From US9113629B2, “4-amino-6-(4-substituted-phenyl)-picolinates and 6-amino-2-(4-substituted-phenyl)-pyrimidine-4-carboxylates and their use as herbicides” (DOW AGROSCIENCES LLC, priority 2013, dated 2015)
Read-outs that look alike come from different tables or passages of the source.

Columns and labels:
[1] = test system: Key Grass and Sedge Weeds as well as Grass Crops; assay: Post-emergent Test II herbicidal activity (Table 6); assay type: in vivo; details: post-emergence, 336 h; for pest or weed control at 70 g/ha: application rate 70 g ai/ha; for pest or weed control at 140 g/ha: application rate 140 g ai/ha
Outline: (§1)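 Test species were raised 7–21 d under greenhouse conditions until reaching the first or second true leaf, sprayed with formulated compound at 187 L/ha, and kept subirrigated to avoid wash-off. Fourteen days later, damage was rated visually on a 0–100% scale against untreated plants.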

[2] = test system: Key Broadleaf Weed and Crop Species; assay: Post-emergent Test II herbicidal activity (Table 5); assay type: in vivo; details: post-emergence, 336 h, post-emergent, 14 days after application; for pest or weed control at 70 g/ha: 70 g ai/ha; for pest or weed control at 140 g/ha: application rate 140 g ai/ha
Outline: as §1

[3] = CYPES: yellow nutsedge (Cyperus esculentus), read-out: Visual Growth Reduction (%) 14 Days After Application, CYPES
[4] = DIGSA: crabgrass (Digitaria sanguinalis), read-out: Visual Growth Reduction (%) 14 Days After Application, DIGSA
[5] = ECHCG: barnyardgrass (Echinochloa crus-galli), read-out: Visual Growth Reduction (%) 14 Days After Application, ECHCG
[6] = ORYSA: rice (Oryza sativa), read-out: Visual Growth Reduction (%) 14 Days After Application, ORYSA
[7] = SETFA: giant foxtail (Setaria faberi), read-out: Visual Growth Reduction (%) 14 Days After Application, SETFA
[8] = SORVU: grain sorghum (Sorghum vulgare), read-out: Visual Growth Reduction (%) 14 Days After Application, SORVU
[9] = TRZSS (wheat, Triticum aestivum), read-out: Visual Growth Reduction (%) 14 Days After Application, TRZSS
[10] = ZEAMX: maize, corn (Zea mays), read-out: Visual Growth Reduction (%) 14 Days After Application, ZEAMX

Q: What does the source list for `COC(=O)c1nc(-c2cc(F)c(C)cc2F)cc(N)c1Cl` [Compound 179]?
A: pest or weed control at 70 g/ha [1, 3]: 0 to 29%; pest or weed control at 140 g/ha [1, 3]: 0 to 29%; pest or weed control at 70 g/ha [1, 4]: 0 to 29%; pest or weed control at 140 g/ha [1, 4]: 0 to 29%; pest or weed control at 70 g/ha [1, 5]: 0 to 29%; pest or weed control at 140 g/ha [1, 5]: 30 to 44%; pest or weed control at 70 g/ha [1, 6]: 0 to 29%; pest or weed control at 140 g/ha [1, 6]: 0 to 29%; pest or weed control at 70 g/ha [1, 7]: 0 to 29%; pest or weed control at 140 g/ha [1, 7]: 0 to 29%; pest or weed control at 70 g/ha [1, 8]: 0 to 29%; pest or weed control at 140 g/ha [1, 8]: 45 to 59%; pest or weed control at 70 g/ha [1, 9]: 0 to 29%; pest or weed control at 140 g/ha [1, 9]: 0 to 29%; pest or weed control at 70 g/ha [1, 10]: 0 to 29%; pest or weed control at 140 g/ha [1, 10]: 0 to 29%; pest or weed control at 70 g/ha ([2]; ABUTH: velvetleaf (Abutilon theophrasti), read-out: Visual Growth Reduction (%) 14 Days After Application ABUTH): 95 to 100%; pest or weed control at 140 g/ha ([2]; ABUTH: velvetleaf (Abutilon theophrasti), read-out: Visual Growth Reduction (%) 14 Days After Application, ABUTH): 95 to 100%; pest or weed control at 70 g/ha ([2]; AMARE: redroot pigweed (Amaranthus retroflexus), read-out: Visual Growth Reduction (%) 14 Days After Application AMARE): 95 to 100%; pest or weed control at 140 g/ha ([2]; AMARE: redroot pigweed (Amaranthus retroflexus), read-out: Visual Growth Reduction (%) 14 Days After Application, AMARE): 95 to 100%; pest or weed control at 70 g/ha ([2]; BRSNN: oilseed-rape, canola (Brassica napus), read-out: Visual Growth Reduction (%) 14 Days After Application BRSNN): 30 to 44%; pest or weed control at 140 g/ha ([2]; BRSNN: oilseed-rape, canola (Brassica napus), read-out: Visual Growth Reduction (%) 14 Days After Application, BRSNN): 45 to 59%; pest or weed control at 70 g/ha ([2]; CHEAL: lambsquarters (Chenopodium album), read-out: Visual Growth Reduction (%) 14 Days After Application CHEAL): 95 to 100%; pest or weed control at 140 g/ha ([2]; CHEAL: lambsquarters (Chenopodium album), read-out: Visual Growth Reduction (%) 14 Days After Application, CHEAL): 95 to 100%; pest or weed control at 70 g/ha ([2]; EPHHL: wild poinsettia (Euphorbia heterophylla), read-out: Visual Growth Reduction (%) 14 Days After Application EPHHL): 95 to 100%; pest or weed control at 140 g/ha ([2]; EPHHL: wild poinsettia (Euphorbia heterophylla), read-out: Visual Growth Reduction (%) 14 Days After Application, EPHHL): 95 to 100%; pest or weed control at 70 g/ha ([2]; HELAN: sunflower (Helianthus annuus), read-out: Visual Growth Reduction (%) 14 Days After Application HELAN): 85 to 94%; pest or weed control at 140 g/ha ([2]; HELAN: sunflower (Helianthus annuus), read-out: Visual Growth Reduction (%) 14 Days After Application, HELAN): 85 to 94%; pest or weed control at 70 g/ha ([2]; VIOTR: wild pansy (Viola tricolor), read-out: Visual Growth Reduction (%) 14 Days After Application VIOTR): 0 to 29%; pest or weed control at 140 g/ha ([2]; VIOTR: wild pansy (Viola tricolor), read-out: Visual Growth Reduction (%) 14 Days After Application, VIOTR): 0 to 29%; melting point: 137.2 to 138.8 °C
